Test results published in PMC4965013, “Open Source Drug Discovery with the Malaria Box Compound Collection for Neglected Diseases and Beyond” (PLoS Pathogens, 2016).

Columns and labels:
[1] = system: P. falciparum 3D7A stage V gametocytes, female gamete formation; parameters: method as in ref [73] (a number printed in a supplementary file, which may have a reference list of its own: not looked up in the article's list); details: 5µM; ref [73]; cited from earlier work
zebrafish embryos = test: Zebrafish embryo toxicity, mortality, behaviour; format: in vivo; details: 10µM
Experimental: Columns FE-FG: BIOBIDE group (data presented first in this paper). Zebrafish embryo toxicity, mortality, and behaviour change. 3 days post fertilization (dPf) zebrafish embryos from AB strain (wild type) were used for in vivo toxicity and behavioural screening. […] Then, embryos were incubated with each compound at 10 µM (1% DMSO) in E3 buffered with HEPES at 10 mM for 48 hours in 24 well plates, 5 embryos per well, 3 wells per condition (n=15). A group treated only with the vehicle was included in each plate as negative control. Afterwards, mortality and morphological alterations were assessed. Toxicity: When an altered phenotype (mortality, developmental abnormalities) appeared in more than 20% of cases it was considered toxic. […] For this purpose, 5dPf larvae (treated and negative controls) were transferred from 24-well treatment plate to 96-well plate, one embryo per well. 96-well plate was introduced in DanioVision system powered by Ethovision (Noldus). The behaviour was evaluated recording a total of 40 minutes in a round of 10 minutes under light and 10 minutes in darkness repeated twice. As activity is expected to differ under light and dark periods, the analysis was performed for each one of the 10 minutes phases. The differences between treated and controls for each parameter (distance, velocity) and phase was considered significant if p value is less than 0.005 (scored y for yes in HeatMap). Also, the p values between 0.01 and 0.005 were taken into account as an indicator of tendency (scored m for maybe in heat map). The toxic character of a compound was determined by the consistent differences (in both dark and light periods) between treated embryos and controls. […] If consistent results could not be obtained, the compound was scored i for indeterminate.

[2] = Kinetic Solubility at pH 7.4 (LC/CLND); format: physicochemical; details: pH 7.4, aqueous buffer, kinetic from dmso stock; read-out: Kinetic Solubility >20µM at pH 7.4
Experimental: Columns GD-GJ: Wuxi Inc. data for MMV (data presented first in this paper) PK/DMPK Parameters: Fasted animals (Male CD-1 mouse, 7-9 weeks age, 30±10 g, n=3) obtained from an approved vendor (SLAC Laboratory Animal Co. Ltd., Shanghai, China or Sino-British SIPPR/BK Laboratory Animal Co. Ltd Shanghai, China) were administered with a single oral dose (140 μmol/kg) using DMSO: 1% HPMC (5:95) as a vehicle. Blood sampling was performed via the submandibular or saphenous vein (t=0.083, 0.25, 1, 2, 4, 6 and 9 h) and transferred into microcentrifuge tubes containing Sodium Heparin (1,000 IU/ml) as anti-coagulant placed on wet ice until processed for plasma by centrifugation at approximately 4°C, 3000×g for 15 min. Plasma samples were stored in polypropylene tubes, quick frozen over dry ice and kept at -70±10°C until LC/MS/MS analysis. LC/MS/MS methods for the quantitative determination compounds plasma levels were developed with an internal standard. […] (Phoenix WinNonlin, version 6.2.1, Pharsight, Mountain View, CA) and expressed as Cmax & AUC0-last. […] AUC0-last is the area under the curve expressed as >12 h*μM (Yes or No). Plasma protein binding assay (PPB) (CD-1 mouse and human) expressed as <95% bound, >95% bound, or >99% bound. Kinetic Solubility at pH 7.4 was determined by liquid chromatography/chemiluminescence nitrogen detection (LC/CLND) and was scored as greater than 20µM (Yes or No). hERG inhibition was measured at 11µM by the QPatch- HT system and is expressed as “Yes” if greater than 45% inhibited at 11µM and “No” if less than or equal to 45% inhibited at 11µM. As part of the Drug-Drug Interaction studies (DDI issues), 5 human and 1 mouse CYP isoforms (1A2, 2C9, 2C19, 2D6, 3A4-M, 3A4-T) were tested for inhibition assay at 10 µM. […] Otherwise DDI issues were scored as “No”. Positive and negative controls were run for each assay (Table 1).

T. b. brucei Squib 427 = details: ref [84]; read-out: Trypansoma brucei brucei Squib 427 IC50; cited from earlier work
[3] = system: Leishmania infantum MHOM/MA/BE/67; details: ref [84]; read-out: Leishmania infantum EC50 intracellular amastigotes in primary macrophages; cited from earlier work
[4] = system: Schistosoma mansoni schistosomula (somules); test: S. mansoni somules phenotypic screen Caffrey
A. ceylanicum L3 larvae = A. ceylanicum L3 larvae J. Keiser; format: cell-based, Ancylostoma ceylanicum; details: 200µM
Trypanosoma cruzi = test: T. cruzi Scynexis; format: cell-based
[5] = system: Mycobacterium tuberculosis mc26220 replicating; test: microbe, parasite or virus in culture; format: cell-based
Dictyostelium discoideum = test: D. discoideum toxicity assay; format: cell-based; details: 10µM
Experimental: Columns FA-FC: Soldati Group (data presented first in this paper). M. marinum, D. discoideum, and Acathamoeba castellani assays. Each compound of the Malaria Box has been assayed at 10 µM in all three assays. First, the antibiotic activity was assayed directly against Mycobacterium marinum in its culture medium. Second, the toxicity and growth inhibitory effect of the compounds was assayed against the amoeba Dictyostelium discoideum in its culture medium. Finally, the “in cellulo” anti-infective activity of each compound was tested using the intracellular infection system Acanthamoeba castellanii-M. marinum. Values have been normalized using the DMSO carrier. For each assay, values have been normalized to 1.00 using the DMSO carrier, which has no detectable effect on D. discoideum nor M. marinum growth, while rifabutin was used as positive control for the antibiotic assay and the infection assay, as it abolishes M. marinum growth (normalized value under 0.10) in broth at 10 µM and intracellularly at 30 µM [150].

SMILES | 3D7A female gamete formation acridine orange % inhibition [1] [%] | Zebrafish % mortality (zebrafish embryos) [%] | Zebrafish Toxicity (mortality and dev abnl) (zebrafish embryos) | solubility kinetic [2] [µM] | IC50 (T. b. brucei Squib 427) [µM] | EC50 [3] [µM] | S. mansoni newly transformed schistosomula, visual tox scale, 0 = none, 4=most damaged ([4]; 24 h at 2.5µM) | S. mansoni newly transformed schistosomula, visual tox scale, 0 = none, 4=most damaged ([4]; 72 h at 2.5µM) | Anyclostoma ceylanicum L3 larvae effect (%) (A. ceylanicum L3 larvae) | inhibition at 5 µM (Trypanosoma cruzi) [%] | inhibition at 25 µM [5] [%] | Dictyostelium discoideum relative growth DMSO=1 Toxicity Assay (Dictyostelium discoideum)
CCN1CCN(c2cc(C)c3cc(NC(=O)c4ccc(OC)c(OC)c4)ccc3n2)CC1 [MMV019074] | -18 | 0 | y (altered phenotype (mortality, developmental abnormalities) appeared in more than 20% of cases it was considered toxic) | < 20 | 4.78 | 6.35 | 1 | 0 | 0 | 13 | 15 | –
CCOC(=O)c1cnc2ccc(OC)cc2c1NCc1ccccc1 [MMV665813] | -11 | 100 | y (altered phenotype (mortality, developmental abnormalities) appeared in more than 20% of cases it was considered toxic) | < 20 | 14.9 | 10.1 | 1 | 1 | 0 | -49 | 40 | 0.71
CCN(CC)c1cc(C)c2cc(NC(=O)c3cccc(OC)c3)ccc2n1 [MMV000498] | 3 | 0 | – | < 20 | 14.3 | 16.2 | 2 | 0 | 0 | 98 | 19 | 0.60
COc1ccc(C(=O)Nc2ccc3nc(N4CCCCC4)cc(C)c3c2)cc1OC [MMV019758] | – | 13 | y (altered phenotype (mortality, developmental abnormalities) appeared in more than 20% of cases it was considered toxic) | < 20 | 16.2 | 16.2 | 0 | 0 | 0 | 71 | 21 | 0.88
COc1cc2cc(C(=O)Nc3ccccc3)c(N)nc2cc1OC [MMV006767] | -3 | 0 | y (altered phenotype (mortality, developmental abnormalities) appeared in more than 20% of cases it was considered toxic) | > 20 | – | – | 0 | 2 | 0 | 86 | 17 | –
